Format in all cases: cell-based
One assay deals with T1, EP2 (Homo sapiens, UniProt P43116).
T1 construct: SF295 glioblastoma cells express high endogenous EP2 and no EP4; host or cells: SF295 glioblastoma cells
Nature of the assay: hEP2 cAMP Assay (SF295 glioblastoma cells, HTRF cAMP, PGE2 75 nM). The settings on record: antagonistic activity, PGE2 75 nM (EC80). The method in brief:
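IC50 values derive from duplicate-point curves of percent cAMP relative to DMSO, read by HTRF (665/620 nm) against a cAMP calibrator. Compounds (30 μM to 0.01 nM ranges) were given 45 min at room temperature before 30 min with 75 nM PGE2, in EP2-only SF295 cells with 2 mM IBMX.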
On the technique in general: In TR-FRET formats the signal depends on donor and acceptor labels being close together.

For another assay, the target named is T2, PTGER2 (EP2) (Homo sapiens, UniProt P43116).
T2 construct: host or cells: HEK 293 (PathHunter, stably transfected)
The assay can be described thus: hEP2 b-Arrestin Assay (PathHunter HEK 293 PTGER2 b-arrestin cells, PGE2 5 μM). The conditions noted are these: antagonistic activity, beta-arrestin assay, HEK 293 PTGER2 cells, PGE2 5 μM (EC80); read-out: hEP2 b-arr IC50. The method in brief:
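PathHunter enzyme-fragment complementation in HEK 293 cells: compounds (10 μM-2 nM or 1 μM-0.2 nM) pre-incubated 15 min at 37 °C, then 5 μM PGE2 (EC80) for 120 min at 37 °C. Chemiluminescence read after 1 h detection; IC50 from duplicate dose-response fits, means of repeats.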

A further assay concerns the target T3, EP4 (Homo sapiens, UniProt P35408).
T3 construct: BT549 breast cancer cells, express high endogenous EP4 levels and very low EP2 levels; host or cells: BT549 breast cancer cells
The assay can be described thus: hEP4 cAMP Assay (BT549 breast cancer cells, HTRF cAMP, PGE2 6 nM). The settings on record: antagonistic activity, PGE2 6 nM (EC80). The method in brief: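 Antagonism is measured as inhibition of PGE2 (6 nM final, EC80) cAMP accumulation in EP4-expressing BT549 breast cancer cells, after a 45 min room-temperature compound pre-incubation and 30 min agonist step, with 2 mM IBMX present. HTRF ratio gives cAMP relative to DMSO; IC50 fitted, means over repeat runs.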

In another assay the target is T4, PTGER4 (EP4) (Homo sapiens, UniProt P35408).
T4 construct: host or cells: HEK 293 (PathHunter, stably transfected)
The assay can be described thus: hEP4 b-Arrestin Assay (PathHunter HEK 293 PTGER4 b-arrestin cells, PGE2 20 nM). The settings on record: antagonistic activity, beta-arrestin assay, HEK 293 PTGER4 cells, PGE2 20 nM (EC80); read-out: hEP4 b-arr IC50. In a few lines: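 PathHunter HEK 293 EP4 b-arrestin enzyme-complementation cells preincubated 15 min at 37° C with compound (10 μM-2 nM or 1 μM-0.2 nM), then stimulated 120 min with 20 nM PGE2 (EC80). Chemiluminescence read; IC50 from duplicate % activity vs DMSO, one-site fit, averaged over repeats.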

T1 sequence (P43116 whole entry): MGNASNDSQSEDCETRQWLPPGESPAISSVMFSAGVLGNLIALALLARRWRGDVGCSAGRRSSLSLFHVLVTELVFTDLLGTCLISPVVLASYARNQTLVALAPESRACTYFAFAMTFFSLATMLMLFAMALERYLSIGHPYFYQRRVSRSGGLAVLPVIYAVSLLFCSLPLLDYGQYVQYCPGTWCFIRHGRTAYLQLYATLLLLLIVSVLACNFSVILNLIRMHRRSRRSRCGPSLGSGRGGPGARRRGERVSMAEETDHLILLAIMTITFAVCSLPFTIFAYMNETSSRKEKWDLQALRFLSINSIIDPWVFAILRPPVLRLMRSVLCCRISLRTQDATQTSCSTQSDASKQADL
T2 sequence (P43116 whole entry): as above
T4 sequence (P35408 whole entry): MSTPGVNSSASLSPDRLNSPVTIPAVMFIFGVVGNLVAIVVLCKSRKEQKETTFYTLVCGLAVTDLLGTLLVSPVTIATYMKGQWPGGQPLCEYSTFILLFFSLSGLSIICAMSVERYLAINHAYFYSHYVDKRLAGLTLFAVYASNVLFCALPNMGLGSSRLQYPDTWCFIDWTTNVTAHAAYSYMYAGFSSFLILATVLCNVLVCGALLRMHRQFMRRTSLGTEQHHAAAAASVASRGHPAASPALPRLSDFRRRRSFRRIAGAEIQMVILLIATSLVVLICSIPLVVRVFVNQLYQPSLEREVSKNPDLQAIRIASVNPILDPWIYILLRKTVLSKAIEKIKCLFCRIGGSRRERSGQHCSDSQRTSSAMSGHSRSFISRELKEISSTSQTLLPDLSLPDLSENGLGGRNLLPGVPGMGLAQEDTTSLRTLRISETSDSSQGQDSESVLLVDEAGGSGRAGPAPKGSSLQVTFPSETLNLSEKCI
T3 sequence (P35408 whole entry): as above

As usually defined, the IC50 is the concentration at which inhibition is half-maximal. With `COc1ccc2ccccc2c1CCNc1cc(-c2ccc(-c3c(O)c(=O)c3=O)cc2)ncn1` [Example 116, 3-Hydroxy-4-(4-{6-[2-(2-methoxy-naphthalen-1-yl)-ethylamino]-pyrimidin-4-yl}-phenyl)-cyclobut-3-ene-1,2-dione], the IC50 against EP2 was 67 nM; at PTGER2 (EP2) it was 25 nM; on EP4, 241 nM; at PTGER4 (EP4) it was 1140 nM.

In the case of `CCOc1cc(-c2cc(NCCc3ccc(C)c4ccccc34)ncn2)sc1C(=O)O` [Example 18, 3-Ethoxy-5-{6-[2-(4-methyl-naphthalen-1-yl)-ethylamino]-pyrimidin-4-yl}-thiophene-2-carboxylic acid], the IC50 on EP2 turned out to be 21 nM; at PTGER2 (EP2), 19 nM; against EP4, 7 nM; on PTGER4 (EP4), 9 nM.

On to `CCOc1cc(-c2cc(NCCc3cccc4cc[nH]c34)ncn2)sc1C(=O)O` [Example 46, 3-Ethoxy-5-{6-[2-(1H-indol-7-yl)-ethylamino]-pyrimidin-4-yl}-thiophene-2-carboxylic acid], for which the IC50 came to 85 nM at EP2, 110 nM at PTGER2 (EP2), 244 nM against EP4 and 311 nM at PTGER4 (EP4).

Consider `CCOc1cc(-c2cc(NCCc3c(OC)ccc4ccccc34)ncn2)ccc1NC(=O)C(=O)O` [Example 133, N-(2-Ethoxy-4-{6-[2-(2-methoxy-naphthalen-1-yl)-ethylamino]-pyrimidin-4-yl}-phenyl)-oxalamic acid], for which the IC50 against EP2 is 22 nM; on PTGER2 (EP2), 6 nM; against EP4 it was 79 nM; at PTGER4 (EP4), 41 nM.

`CCOc1cc(-c2cc(NCCc3ccc(OC)c4ccccc34)ncn2)sc1C(=O)O` [Example 59, 3-Ethoxy-5-{6-[2-(4-methoxy-naphthalen-1-yl)-ethylamino]-pyrimidin-4-yl}-thiophene-2-carboxylic acid]: the IC50 amounted to 141 nM at EP2, 156 nM on PTGER2 (EP2), 38 nM at EP4 and 17 nM at PTGER4 (EP4).

As to `COc1ccc2c(c1CCNc1cc(-c3cc(C(F)(F)F)c(C(=O)O)s3)ncn1)CCCN2C` [Example 154, 5-{6-[2-(6-Methoxy-1-methyl-1,2,3,4-tetrahydro-quinolin-5-yl)-ethylamino]-pyrimidin-4-yl}-3-trifluoromethyl-thiophene-2-carboxylic Acid], the IC50 is 144 nM against EP2, 57 nM on PTGER2 (EP2), 177 nM against EP4 and 125 nM on PTGER4 (EP4).

For the compound `CCOc1cc(-c2cc(NCCc3c(C#N)ccc4ccccc34)ncn2)ccc1C(=O)O` [Example 67, 4-{6-[2-(2-Cyano-naphthalen-1-yl)-ethylamino]-pyrimidin-4-yl}-2-ethoxy-benzoic acid], the IC50 at EP2 amounted to 25 nM; on PTGER2 (EP2), 29 nM; at EP4, 309 nM; at PTGER4 (EP4) it was 499 nM.

As to `CCOc1cc(-c2cc(NCCc3c(C)ccc4ncccc34)ncn2)sc1C(=O)O` [Example 2, 3-Ethoxy-5-{6-[2-(6-methyl-quinolin-5-yl)-ethylamino]-pyrimidin-4-yl}-thiophene-2-carboxylic acid], the IC50 at EP2 was found to be 47 nM; at PTGER2 (EP2) it was 27 nM; against EP4, 100 nM; on PTGER4 (EP4), 311 nM.

For `CCOc1nc(-c2cc(NCCc3c(OC)ccc4ccccc34)ncn2)sc1-c1noc(=O)[nH]1` [Example 149, 3-(4-Ethoxy-2-{6-[2-(2-methoxy-naphthalen-1-yl)-ethylamino]-pyrimidin-4-yl}-thiazol-5-yl)-[1,2,4]oxadiazol-5(4H)-one], the IC50 on EP2 was found to be 15 nM; at PTGER2 (EP2), 5 nM; against EP4, 52 nM; on PTGER4 (EP4), 6 nM.

In the case of `CCOc1cc(-c2cc(NCCc3c(OC(F)F)ccc4ccccc34)ncn2)sc1C(=O)O` [Example 32, 5-{6-[2-(2-Difluoromethoxy-naphthalen-1-yl)-ethylamino]-pyrimidin-4-yl}-3-ethoxy-thiophene-2-carboxylic acid], the IC50 at EP2 stood at 10 nM; at PTGER2 (EP2) it was 10 nM; against EP4 it was 72 nM; on PTGER4 (EP4), 19 nM.

Regarding `CCOc1cc(-c2cc(NCCc3cccc4c(C)cccc34)ncn2)ccc1CC(=O)O` [Example 164, (2-Ethoxy-4-{6-[2-(5-methyl-naphthalen-1-yl)-ethylamino]-pyrimidin-4-yl}-phenyl)-acetic acid], the IC50 came to 130 nM at EP2, 44 nM on PTGER2 (EP2), 110 nM on EP4 and 181 nM at PTGER4 (EP4).

Regarding `CCOc1cc(-c2cc(NCCc3c(OC)c(OC)cc4ccccc34)ncn2)sc1C(=O)O` [Example 14, 5-{6-[2-(2,3-Dimethoxy-naphthalen-1-yl)-ethylamino]-pyrimidin-4-yl}-3-ethoxy-thiophene-2-carboxylic acid], the IC50 at EP2 worked out at 77 nM; at PTGER2 (EP2), 28 nM; at EP4 it was 24 nM; on PTGER4 (EP4) it was 17 nM.

Consider `CCOc1cc(-c2cc(NCCc3c(OCC)ccc4c3OCO4)ncn2)sc1C(=O)O` [Example 45, 3-Ethoxy-5-{6-[2-(5-ethoxy-benzo[1,3]dioxol-4-yl)-ethylamino]-pyrimidin-4-yl}-thiophene-2-carboxylic acid], for which the IC50 stood at 10 nM at EP2, 10 nM at PTGER2 (EP2), 44 nM at EP4 and 53 nM on PTGER4 (EP4).

In the case of `CCOc1cc(-c2cc(NCCc3cccc4ccncc34)ncn2)sc1-c1noc(=O)[nH]1` [Example 139, 3-{3-Ethoxy-5-[6-(2-isoquinolin-8-yl-ethylamino)-pyrimidin-4-yl]-thiophen-2-yl}-[1,2,4]oxadiazol-5(4H)-one], the IC50 against EP2 stood at 526 nM; on PTGER2 (EP2), 186 nM; against EP4 it was 28 nM; on PTGER4 (EP4), 48 nM.

Regarding `CCOc1cc(-c2cc(NCCc3cccc4sccc34)ncn2)sc1C(=O)O` [Example 108, 5-[6-(2-Benzo[b]thiophen-4-yl-ethylamino)-pyrimidin-4-yl]-3-ethoxy-thiophene-2-carboxylic acid], the IC50 against EP2 turned out to be 52 nM; at PTGER2 (EP2), 31 nM; against EP4, 31 nM; on PTGER4 (EP4), 225 nM.

On to `CCOc1cc(-c2cc(NCCc3cccc4ccccc34)ncn2)ccc1C(=O)O` [Example 6, 2-Ethoxy-4-[6-(2-naphthalen-1-yl-ethylamino)-pyrimidin-4-yl]-benzoic acid], for which the IC50 was 95 nM against EP2, 85 nM at PTGER2 (EP2), 910 nM against EP4 and 1690 nM at PTGER4 (EP4).

Take `CCCc1cc(-c2cc(NCCc3c(OC)ccc4ccccc34)ncn2)ccc1C(=O)O` [Example 121, 4-{6-[2-(2-Methoxy-naphthalen-1-yl)-ethylamino]-pyrimidin-4-yl}-2-propyl-benzoic acid]: the IC50 against EP2 amounted to 5 nM; on PTGER2 (EP2) it was 12 nM; at EP4, 53 nM; at PTGER4 (EP4), 308 nM.

As to `CCOc1cc(-c2cc(NCCc3c(C#N)ccc4c(OC)ccc(F)c34)ncn2)sc1C(=O)O` [Example 158, 5-{6-[2-(2-Cyano-8-fluoro-5-methoxy-naphthalen-1-yl)-ethylamino]-pyrimidin-4-yl}-3-ethoxy-thiophene-2-carboxylic acid], the IC50 at EP2 is 286 nM; on PTGER2 (EP2), 126 nM; at EP4, 3 nM; on PTGER4 (EP4) it was 3 nM.

Regarding `CCOc1cc(-c2cc(NCCc3c(OC)ccc4cccnc34)ncn2)sc1C(=O)O` [Example 33, 3-Ethoxy-5-{6-[2-(7-methoxy-quinolin-8-yl)-ethylamino]-pyrimidin-4-yl}-thiophene-2-carboxylic acid], the IC50 came to 78 nM against EP2, 56 nM at PTGER2 (EP2), 223 nM on EP4 and 252 nM on PTGER4 (EP4).

For the compound `CCOc1nc(-c2cc(NCCc3c(OC)ccc4ccccc34)ncn2)sc1C(=O)O` [Example 147, 4-Ethoxy-2-{6-[2-(2-methoxy-naphthalen-1-yl)-ethylamino]-pyrimidin-4-yl}-thiazole-5-carboxylic Acid], the IC50 on EP2 stood at 10 nM; on PTGER2 (EP2), 7 nM; against EP4 it was 44 nM; on PTGER4 (EP4), 40 nM.

Turning to `CCOc1ccc2ccccc2c1CCNc1cc(-c2ccc(C(=O)O)c(OC3CCC3)c2)ncn1` [Example 26, 2-Cyclobutoxy-4-{6-[2-(2-ethoxy-naphthalen-1-yl)-ethylamino]-pyrimidin-4-yl}-benzoic acid], the IC50 on EP2 was determined as 11 nM; at PTGER2 (EP2) it was 10 nM; at EP4, 566 nM; on PTGER4 (EP4), 392 nM.

The record behind these values is patent US11446298B2, “Pyrimidine derivatives” (Idorsia Pharmaceuticals Ltd, priority 2017, dated 2022).
